Data: BindingDB's records for PubMed 20126400 (University of Oklahoma, 2010)

What was measured:
[1] = biological target: 5-hydroxytryptamine receptor 7 (Homo sapiens, UniProt P34969); experiment: Ray2010 Assay 74
Source text: (§1) Table S2 shows raw Ki data for the current study combined with data collected from the literature for the ten additional compounds.

[2] = biological target: Beta-2 adrenergic receptor (Homo sapiens, UniProt P07550); experiment: Ray2010 Assay 74
Source text: as §1

[3] = biological target: T1, Alpha-2C adrenergic receptor (Homo sapiens, UniProt P18825); experiment: Ray2010 Assay 74
T1 sequence (P18825 whole entry): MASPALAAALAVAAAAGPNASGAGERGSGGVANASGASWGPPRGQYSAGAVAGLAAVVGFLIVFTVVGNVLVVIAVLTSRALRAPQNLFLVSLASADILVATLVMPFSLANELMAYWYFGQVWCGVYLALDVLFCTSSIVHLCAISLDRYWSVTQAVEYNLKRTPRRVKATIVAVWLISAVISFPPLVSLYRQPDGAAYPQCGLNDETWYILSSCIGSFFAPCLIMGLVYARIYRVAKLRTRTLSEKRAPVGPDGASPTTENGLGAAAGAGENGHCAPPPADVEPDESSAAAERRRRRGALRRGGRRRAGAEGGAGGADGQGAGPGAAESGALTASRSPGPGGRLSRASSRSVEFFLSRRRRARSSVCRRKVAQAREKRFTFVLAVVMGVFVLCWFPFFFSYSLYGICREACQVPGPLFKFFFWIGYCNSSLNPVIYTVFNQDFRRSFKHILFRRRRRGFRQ
Source text: as §1

Cannabinoid receptor 2 = Cannabinoid receptor 2 (Homo sapiens, UniProt P34972); experiment: Ray2010 Assay 74
Source text: as §1

[4] = biological target: ATP-dependent translocase ABCB1 (Homo sapiens, UniProt P08183); experiment: Ray2010 Assay 74
Source text: as §1

Cannabinoid receptor 1 = Cannabinoid receptor 1 (Homo sapiens, UniProt P21554); experiment: Ray2010 Assay 74
Source text: as §1

Nischarin = Nischarin (Homo sapiens, UniProt Q9Y2I1); experiment: Ray2010 Assay 74
Source text: as §1

[5] = biological target: 5-hydroxytryptamine receptor 1D (UniProt F1MMU1); experiment: Ray2010 Assay 30
Source text: 5-HT caudate .

[6] = biological target: Glutamate receptor ionotropic, NMDA 2D (Rattus norvegicus, UniProt Q62645); experiment: Ray2010 Assay 67
Source text: MK-801 cerebellum .

[7] = biological target: Muscarinic acetylcholine receptor M1 (Rattus norvegicus, UniProt P08482); experiment: Ray2010 Assay 47
Source text: pirenzepine forebrain .

[8] = biological target: Gamma-aminobutyric acid receptor subunit beta-1 (Homo sapiens, UniProt P18505); experiment: Ray2010 Assay 74
Source text: as §1

[9] = biological target: T2, 5-hydroxytryptamine receptor 2C (Homo sapiens, UniProt P28335); experiment: Ray2010 Assay 74
T2 sequence (P28335 whole entry): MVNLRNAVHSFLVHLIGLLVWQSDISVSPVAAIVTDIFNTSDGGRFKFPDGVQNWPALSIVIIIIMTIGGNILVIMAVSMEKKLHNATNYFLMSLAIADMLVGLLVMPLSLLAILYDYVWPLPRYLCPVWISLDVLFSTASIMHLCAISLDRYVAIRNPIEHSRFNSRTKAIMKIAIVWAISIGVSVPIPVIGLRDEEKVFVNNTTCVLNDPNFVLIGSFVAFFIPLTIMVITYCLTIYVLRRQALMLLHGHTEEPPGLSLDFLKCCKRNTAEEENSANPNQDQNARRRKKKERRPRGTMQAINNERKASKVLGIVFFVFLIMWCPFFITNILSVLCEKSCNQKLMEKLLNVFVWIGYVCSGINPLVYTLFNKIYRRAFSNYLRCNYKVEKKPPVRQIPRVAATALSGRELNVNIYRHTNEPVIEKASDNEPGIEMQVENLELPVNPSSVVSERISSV
Source text: as §1

Glutamate receptor 4 = Glutamate receptor 4 (Homo sapiens, UniProt P48058); experiment: Ray2010 Assay 74
Source text: as §1

[10] = biological target: Muscarinic acetylcholine receptor M2 (Rattus norvegicus, UniProt P10980); experiment: Ray2010 Assay 50
Source text: AF-DX384 forebrain .

Vasopressin V1b receptor = biological target: T3, Vasopressin V1b receptor (Homo sapiens, UniProt P47901); experiment: Ray2010 Assay 74
T3 sequence (P47901 whole entry): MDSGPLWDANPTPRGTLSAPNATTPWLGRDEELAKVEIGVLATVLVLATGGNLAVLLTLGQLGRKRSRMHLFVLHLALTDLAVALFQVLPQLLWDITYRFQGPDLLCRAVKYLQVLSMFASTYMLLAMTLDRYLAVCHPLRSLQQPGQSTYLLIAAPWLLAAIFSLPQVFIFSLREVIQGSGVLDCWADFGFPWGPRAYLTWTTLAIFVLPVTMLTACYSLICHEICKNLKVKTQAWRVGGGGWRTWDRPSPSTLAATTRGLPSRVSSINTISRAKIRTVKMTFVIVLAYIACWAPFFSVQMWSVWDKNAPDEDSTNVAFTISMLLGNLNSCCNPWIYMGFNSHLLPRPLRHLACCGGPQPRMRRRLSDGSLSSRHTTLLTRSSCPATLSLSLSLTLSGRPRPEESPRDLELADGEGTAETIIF
Source text: as §1

[11] = biological target: Neuronal acetylcholine receptor subunit alpha-4/beta-4 (Homo sapiens, UniProt P30926+P43681); experiment: Ray2010 Assay 74
Source text: as §1

[12] = biological target: Neuronal acetylcholine receptor subunit alpha-2/beta-2 (Homo sapiens, UniProt P17787+Q15822); experiment: Ray2010 Assay 74
Source text: as §1

[13] = biological target: Neuronal acetylcholine receptor subunit alpha-4/beta-2 (Homo sapiens, UniProt P17787+P43681); experiment: Ray2010 Assay 74
Source text: as §1

[14] = biological target: Neuronal acetylcholine receptor subunit alpha-2/beta-4 (Homo sapiens, UniProt P30926+Q15822); experiment: Ray2010 Assay 74
Source text: as §1

[15] = biological target: Neuronal acetylcholine receptor subunit alpha-4/beta-2 (Mus musculus, UniProt O70174+Q9ERK7); experiment: Ray2010 Assay 74
Source text: as §1

[16] = biological target: Neuronal acetylcholine receptor subunit alpha-3/beta-2 (Homo sapiens, UniProt P17787+P32297); experiment: Ray2010 Assay 74
Source text: as §1

[17] = biological target: Metabotropic glutamate receptor 5 (Homo sapiens, UniProt P41594); experiment: Ray2010 Assay 74
Source text: as §1

[18] = biological target: Metabotropic glutamate receptor 1 (Homo sapiens, UniProt Q13255); experiment: Ray2010 Assay 74
Source text: as §1

[19] = biological target: Metabotropic glutamate receptor 4 (Homo sapiens, UniProt Q14833); experiment: Ray2010 Assay 74
Source text: as §1

[20] = biological target: Metabotropic glutamate receptor 2 (Homo sapiens, UniProt Q14416); experiment: Ray2010 Assay 74
Source text: as §1

[21] = biological target: Metabotropic glutamate receptor 8 (Homo sapiens, UniProt O00222); experiment: Ray2010 Assay 74
Source text: as §1

[22] = biological target: Metabotropic glutamate receptor 6 (Homo sapiens, UniProt O15303); experiment: Ray2010 Assay 74
Source text: as §1

Sequence of 5-hydroxytryptamine receptor 7 (P34969 whole entry): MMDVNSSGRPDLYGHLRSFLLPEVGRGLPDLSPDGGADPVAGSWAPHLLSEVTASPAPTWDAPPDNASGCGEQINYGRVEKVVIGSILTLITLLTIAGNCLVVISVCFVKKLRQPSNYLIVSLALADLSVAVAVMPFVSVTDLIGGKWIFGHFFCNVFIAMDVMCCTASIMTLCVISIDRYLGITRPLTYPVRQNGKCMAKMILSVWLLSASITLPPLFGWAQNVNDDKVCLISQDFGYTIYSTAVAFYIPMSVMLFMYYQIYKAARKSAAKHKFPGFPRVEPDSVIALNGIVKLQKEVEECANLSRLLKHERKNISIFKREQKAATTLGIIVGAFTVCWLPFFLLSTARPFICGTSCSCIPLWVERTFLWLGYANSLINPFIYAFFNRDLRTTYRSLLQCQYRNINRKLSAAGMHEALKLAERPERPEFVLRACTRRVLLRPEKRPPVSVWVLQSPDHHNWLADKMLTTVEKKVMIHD
Sequence of Neuronal acetylcholine receptor subunit alpha-2/beta-4 (Q15822 whole entry): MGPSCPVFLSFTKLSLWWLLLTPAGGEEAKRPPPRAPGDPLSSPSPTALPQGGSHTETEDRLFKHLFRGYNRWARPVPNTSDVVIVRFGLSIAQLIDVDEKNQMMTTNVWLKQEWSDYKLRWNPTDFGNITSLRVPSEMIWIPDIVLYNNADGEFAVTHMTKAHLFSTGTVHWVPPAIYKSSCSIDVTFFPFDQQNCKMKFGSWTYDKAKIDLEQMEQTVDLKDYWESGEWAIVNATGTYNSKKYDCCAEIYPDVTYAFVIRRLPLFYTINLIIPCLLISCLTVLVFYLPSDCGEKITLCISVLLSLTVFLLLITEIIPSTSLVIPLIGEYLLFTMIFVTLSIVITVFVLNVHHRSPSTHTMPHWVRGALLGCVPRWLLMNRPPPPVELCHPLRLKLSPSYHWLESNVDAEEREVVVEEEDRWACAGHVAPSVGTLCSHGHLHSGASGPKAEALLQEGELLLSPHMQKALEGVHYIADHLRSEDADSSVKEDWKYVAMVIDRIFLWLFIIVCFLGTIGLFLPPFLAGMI
Sequence of Neuronal acetylcholine receptor subunit alpha-2/beta-4 (P30926 whole entry): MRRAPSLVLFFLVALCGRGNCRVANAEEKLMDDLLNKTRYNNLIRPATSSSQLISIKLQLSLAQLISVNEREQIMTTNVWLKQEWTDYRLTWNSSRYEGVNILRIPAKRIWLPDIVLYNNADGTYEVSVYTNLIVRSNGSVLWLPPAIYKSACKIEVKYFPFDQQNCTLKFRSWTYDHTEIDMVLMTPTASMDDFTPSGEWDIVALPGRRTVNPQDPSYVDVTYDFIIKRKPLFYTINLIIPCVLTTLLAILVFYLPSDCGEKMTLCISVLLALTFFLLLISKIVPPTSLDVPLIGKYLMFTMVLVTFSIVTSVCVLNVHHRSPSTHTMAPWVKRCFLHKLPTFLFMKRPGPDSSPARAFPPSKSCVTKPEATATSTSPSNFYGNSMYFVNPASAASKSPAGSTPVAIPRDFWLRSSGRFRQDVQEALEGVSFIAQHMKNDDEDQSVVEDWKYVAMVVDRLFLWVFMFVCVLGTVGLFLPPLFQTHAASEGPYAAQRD
Sequence of Nischarin (Q9Y2I1 whole entry): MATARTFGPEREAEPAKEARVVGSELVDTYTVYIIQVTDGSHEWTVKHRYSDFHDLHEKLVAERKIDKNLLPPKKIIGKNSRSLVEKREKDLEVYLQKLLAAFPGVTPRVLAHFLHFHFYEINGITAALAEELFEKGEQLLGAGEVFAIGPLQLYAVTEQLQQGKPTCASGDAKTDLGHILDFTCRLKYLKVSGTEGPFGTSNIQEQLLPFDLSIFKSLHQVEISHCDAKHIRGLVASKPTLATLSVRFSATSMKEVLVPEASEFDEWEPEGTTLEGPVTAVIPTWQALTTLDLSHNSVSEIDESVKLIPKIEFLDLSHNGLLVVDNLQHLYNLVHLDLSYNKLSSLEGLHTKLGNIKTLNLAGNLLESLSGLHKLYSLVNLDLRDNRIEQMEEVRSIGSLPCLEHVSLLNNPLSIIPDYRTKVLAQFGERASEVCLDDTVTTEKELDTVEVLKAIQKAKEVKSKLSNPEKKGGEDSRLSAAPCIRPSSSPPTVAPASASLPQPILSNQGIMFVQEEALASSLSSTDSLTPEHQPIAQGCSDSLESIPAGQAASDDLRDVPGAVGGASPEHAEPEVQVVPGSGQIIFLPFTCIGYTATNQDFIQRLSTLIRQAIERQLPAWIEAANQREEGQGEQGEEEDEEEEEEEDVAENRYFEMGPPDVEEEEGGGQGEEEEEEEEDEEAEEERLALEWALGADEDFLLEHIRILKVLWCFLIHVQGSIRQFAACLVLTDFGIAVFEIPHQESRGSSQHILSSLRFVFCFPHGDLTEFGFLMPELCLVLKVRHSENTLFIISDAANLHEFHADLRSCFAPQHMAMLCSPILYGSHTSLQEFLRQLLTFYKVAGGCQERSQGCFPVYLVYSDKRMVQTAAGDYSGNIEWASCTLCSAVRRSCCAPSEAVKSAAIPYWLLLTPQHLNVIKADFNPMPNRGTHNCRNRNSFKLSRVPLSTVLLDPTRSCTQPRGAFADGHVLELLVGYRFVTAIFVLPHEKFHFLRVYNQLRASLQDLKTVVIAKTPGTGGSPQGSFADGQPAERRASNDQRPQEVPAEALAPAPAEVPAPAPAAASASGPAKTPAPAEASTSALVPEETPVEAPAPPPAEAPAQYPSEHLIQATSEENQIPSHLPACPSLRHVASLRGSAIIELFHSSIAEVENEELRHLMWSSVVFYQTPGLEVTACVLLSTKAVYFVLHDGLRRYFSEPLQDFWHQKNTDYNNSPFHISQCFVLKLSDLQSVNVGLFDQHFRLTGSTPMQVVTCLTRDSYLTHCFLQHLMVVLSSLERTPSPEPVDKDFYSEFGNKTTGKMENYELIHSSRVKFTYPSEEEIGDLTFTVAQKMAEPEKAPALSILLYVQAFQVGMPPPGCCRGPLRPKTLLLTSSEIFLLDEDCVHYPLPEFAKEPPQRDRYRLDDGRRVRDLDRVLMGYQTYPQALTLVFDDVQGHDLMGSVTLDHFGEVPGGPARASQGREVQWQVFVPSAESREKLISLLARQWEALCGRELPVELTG
Sequence of Glutamate receptor 4 (P48058 whole entry): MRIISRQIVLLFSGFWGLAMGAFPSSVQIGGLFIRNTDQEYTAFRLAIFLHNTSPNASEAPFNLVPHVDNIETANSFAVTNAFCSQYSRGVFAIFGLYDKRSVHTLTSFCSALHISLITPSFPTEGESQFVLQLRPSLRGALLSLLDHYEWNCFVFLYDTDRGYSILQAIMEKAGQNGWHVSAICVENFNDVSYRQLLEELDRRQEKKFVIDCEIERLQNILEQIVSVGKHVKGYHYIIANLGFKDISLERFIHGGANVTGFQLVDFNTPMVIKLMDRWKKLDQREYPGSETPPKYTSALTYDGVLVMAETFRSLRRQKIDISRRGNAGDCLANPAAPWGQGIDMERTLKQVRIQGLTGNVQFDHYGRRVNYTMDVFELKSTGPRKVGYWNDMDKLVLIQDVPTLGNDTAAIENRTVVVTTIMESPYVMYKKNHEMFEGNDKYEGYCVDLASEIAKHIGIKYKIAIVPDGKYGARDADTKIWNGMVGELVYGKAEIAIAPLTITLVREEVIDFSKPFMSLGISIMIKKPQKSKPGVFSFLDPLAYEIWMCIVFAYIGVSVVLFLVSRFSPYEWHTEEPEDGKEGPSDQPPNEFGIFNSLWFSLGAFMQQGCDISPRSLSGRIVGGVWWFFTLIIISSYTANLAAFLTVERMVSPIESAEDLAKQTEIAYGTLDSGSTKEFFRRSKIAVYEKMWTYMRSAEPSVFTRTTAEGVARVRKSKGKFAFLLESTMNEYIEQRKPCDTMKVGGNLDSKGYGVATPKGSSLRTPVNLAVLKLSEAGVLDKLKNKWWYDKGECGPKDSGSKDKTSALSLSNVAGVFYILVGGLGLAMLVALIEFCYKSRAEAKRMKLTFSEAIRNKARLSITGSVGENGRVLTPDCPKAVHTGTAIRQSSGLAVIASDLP
Sequence of Neuronal acetylcholine receptor subunit alpha-4/beta-2 (Mus musculus, UniProt O70174+Q9ERK7) (O70174 whole entry): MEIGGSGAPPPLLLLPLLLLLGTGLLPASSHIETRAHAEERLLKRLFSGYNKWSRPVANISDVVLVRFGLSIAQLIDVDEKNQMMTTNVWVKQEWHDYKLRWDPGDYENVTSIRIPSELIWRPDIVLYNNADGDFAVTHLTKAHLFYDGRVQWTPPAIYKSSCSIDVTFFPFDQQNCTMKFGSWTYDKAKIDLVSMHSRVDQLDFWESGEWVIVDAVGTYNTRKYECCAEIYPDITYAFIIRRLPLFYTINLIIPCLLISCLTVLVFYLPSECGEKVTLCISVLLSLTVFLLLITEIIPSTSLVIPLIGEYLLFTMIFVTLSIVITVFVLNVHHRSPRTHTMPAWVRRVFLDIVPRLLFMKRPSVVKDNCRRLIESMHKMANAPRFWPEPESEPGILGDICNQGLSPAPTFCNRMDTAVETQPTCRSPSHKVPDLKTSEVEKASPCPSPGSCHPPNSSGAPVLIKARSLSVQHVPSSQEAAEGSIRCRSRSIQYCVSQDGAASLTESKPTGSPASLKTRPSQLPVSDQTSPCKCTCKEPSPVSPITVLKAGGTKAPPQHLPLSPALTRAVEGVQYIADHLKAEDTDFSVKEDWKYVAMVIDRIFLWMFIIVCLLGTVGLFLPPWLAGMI
Sequence of Neuronal acetylcholine receptor subunit alpha-4/beta-2 (Mus musculus, UniProt O70174+Q9ERK7) (Q9ERK7 whole entry): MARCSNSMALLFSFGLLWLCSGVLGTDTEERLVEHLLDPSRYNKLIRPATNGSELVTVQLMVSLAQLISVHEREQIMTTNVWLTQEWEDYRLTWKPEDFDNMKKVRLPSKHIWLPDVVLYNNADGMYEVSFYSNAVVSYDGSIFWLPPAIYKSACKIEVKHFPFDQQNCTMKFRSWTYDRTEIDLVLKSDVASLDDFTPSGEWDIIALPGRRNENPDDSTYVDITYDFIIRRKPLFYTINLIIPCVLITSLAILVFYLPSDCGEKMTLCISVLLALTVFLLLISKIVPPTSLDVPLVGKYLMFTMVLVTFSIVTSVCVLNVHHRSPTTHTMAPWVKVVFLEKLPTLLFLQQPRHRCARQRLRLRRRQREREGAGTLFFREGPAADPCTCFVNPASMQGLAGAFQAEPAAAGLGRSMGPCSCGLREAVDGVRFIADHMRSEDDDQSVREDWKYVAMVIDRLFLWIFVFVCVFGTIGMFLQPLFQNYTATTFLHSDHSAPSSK

Row | Compound | Ki [1] | Ki [3] | Ki (Cannabinoid receptor 1) | Ki (Nischarin) | Ki (Glutamate receptor 4) | Ki (Vasopressin V1b receptor) | Ki [11] | Ki [12] | Ki [13] | Ki [14] | Ki [15] | Ki [16] | also measured
1 | COc1cc(CC(C)N)cc(OC)c1OC (centres undefined) | 0.749 µM | 5.01 µM | > 10 µM | > 10 µM |  |  |  |  |  |  |  |  | Ki [2]: > 10 µM; Ki (Cannabinoid receptor 2): > 10 µM; Ki [4]: > 10 µM
2 | CC[C@H]1C[C@@H]2C[C@H]3c4[nH]c5ccc(OC)cc5c4CCN(C2)[C@@H]13 |  |  |  |  | > 10 µM |  |  |  |  |  |  |  | Ki [5]: > 100 µM; Ki [6]: 3.31 µM; IC50 [7]: 7.6 µM; Ki [8]: > 10 µM; Ki [9]: > 10 µM; IC50 [10]: 5.9 µM
3 | CCc1cc(OC)c(CC(C)N)cc1OC (centres undefined) | 1.23 µM | 1.45 µM | > 10 µM | > 10 µM |  |  |  |  |  |  |  |  | Ki (Cannabinoid receptor 2): > 10 µM; Ki [4]: > 10 µM
4 | CCc1[nH]c2ccc(OC)cc2c1CCN(C)C [2-ethyl-5-methoxy-N,N-dimethyltryptamine] |  |  |  |  | > 10 µM | > 10 µM | > 10 µM | > 10 µM | > 10 µM | > 10 µM | > 10 µM | > 10 µM | 
5 | COc1ccc2[nH]c(C)c(CCN(C)C)c2c1 [[2-(5-Methoxy-2-methyl-1H-indol-3-yl)-ethyl]-dimethyl-amine (C2H2O)] |  |  |  |  | > 10 µM | > 10 µM | > 10 µM | > 10 µM | > 10 µM | > 10 µM | > 10 µM | > 10 µM | 
6 | CNC(C)Cc1ccc2c(c1)OCO2 (centres undefined) [mdma] | > 10 µM | 1.35 µM | > 10 µM | 0.22 µM |  | > 10 µM | > 10 µM | > 10 µM |  | > 10 µM |  | > 10 µM | Ki [2]: > 10 µM; Ki [17]: > 10 µM; Ki [8]: > 10 µM; Ki [18]: > 10 µM; Ki [19]: > 10 µM; Ki [20]: > 10 µM
7 | C[C@@H]1C[C@@H](C)N1C(=O)C1C=C2c3cccc4[nH]cc(c34)C[C@H]2N(C)C1 (some centres undefined) [rr-2b] |  |  |  |  |  | > 10 µM | > 10 µM | > 10 µM | > 10 µM | > 10 µM | > 10 µM | > 10 µM | Ki [17]: > 10 µM; Ki [18]: > 10 µM; Ki [19]: > 10 µM; Ki [20]: > 10 µM; Ki [21]: > 10 µM; Ki [22]: > 10 µM
